Consider 4 compounds from patent publication US5506217A, “Phosphonates as anti-cancer agents” (The University of British Columbia, priority 1994, dated 1996).

The subject of test [1] is WEHI-3B tumor cells. Put plainly: colonogenic cell survival assay. The class given is cell-based. As to conditions: Mus musculus, WEHI3B, 120 h, methyl cellulose medium, five days, read-out: WEHI-3B Colonies Formed (Percentage of Control). As to the method: Inhibition of colony formation in soft agar medium (colonogenic cell survival assay) is a more rigorous and direct measurement of cell kill or growth inhibition, and reflects the anti-cancer activity of the test compound. Briefly, tumor cells were cultured in petri dishes in methylcellulose, with or without a phosphonate test compound, and the number of colonies formed during a 5-day incubation period were counted.
Table 17 tabulates data obtained with two differrent phosphonate analogs using a colonogenic assay. Colonogenic assay is one of the most trusted tests for determination of effectiveness of an anti-cancer agent. The test is based on the formation of tumor colonies in vitro in a methyl cellulose or soft agar medium. The following results were obtained with the formation of colonies in methyl cellulose medium after five days in the presence or absence of four phosphonate analogs, two with a thioalkyl chain and two with an alkyloxy chain.

Test [2] concerns WEHI-3B tumor cells. Put plainly: 3H-thymidine incorporation assay. As to conditions: Mus musculus, WEHI3B; for viability at 6.25 µM / viability at 12.5 µM / viability at 25 µM / viability at 50 µM: percent [3H]thymidine uptake, WEHI-3B, read-out: Cell Viability (% of Control); for viability at 12.5 µM: 12.50 μM. The class given is cell-based. The procedure:
(§1) Experiments were performed using a number of different rumor cell lines. Tumor cells were cultured in RPMI-1640 medium supplemented with 10% fetal bovine serum, penicillin (50 units/mL), streptomycin (50 μg/mL) and mercaptoethanol (5 μg/mL) in an atmosphere of 5% CO2. The cells were passaged weekly by serial 1/10 to 1/10,000 dilutions. The cell viability and growth were constantly monitored by staining with trypan blue exclusion dye or the incorporation of tritiated thymidine.
(§2) Inhibition of ^3 H-thymidine incorporation into the DNA of cells by a test compound is an indirect measurement of cell kill or growth inhibition, and reflects the anti-cancer activity of the compound.
Tumor cells (2×104 ^4 cells/well) were placed in 200 μL of medium in 96-well plastic microtiter plates; a further 5 μL of medium either with or without phosphonate was added. […] The cells were then harvested using a Brandel cell harvester (model M-12) and collected on Whatman glass microfilters. The radioactivity associated with the filters was quantified in a liquid scintillation counter, and the amount of ^3 H-thymidine incorporated into tumor cells treated with the phosphonate compound was calculated as a percentage of the amount of ^3 H-thymidine incorporated into untreated tumor cells.
The biological activities of 4-hexadecylthio-3(S ) -3-methoxybutane-l-phosponocholine and its enantiomer 4-hexadecylthio-3(R)-3-methoxybutane-1-phosphonocholine were studied on several cancer cell lines. […] The cell viability, was determined as percent[^3 H]thymidine uptake into the cell DNA. The following results are mean of five samples ± S.D.
For orientation: Uptake of a labelled nucleoside into DNA is a usual measure of proliferation.

In a further test the test system is HL-60 tumor cells. Put plainly: 3H-thymidine incorporation assay. The format is cell-based. Conditions: Homo sapiens, HL-60 cells, read-out: Thymidine uptake (% of control). As to the method:
as §1, §2
Tumor cells (2×104 ^4 cells/well) were placed in 200 μL of medium in 96-well plastic microtiter plates; a further 5 μL of medium either with or without phosphonate was added. After incubation for 24, 48 or 72 hours at 37° C. in a humidified atmosphere containing 5% CO2, the wells were pulsed with 0.1 μCi of ^3 H-thymidine for an additional 24 hours. The cells were then harvested using a Brandel cell harvester (model M-12) and collected on Whatman glass microfilters. The radioactivity associated with the filters was quantified in a liquid scintillation counter, and the amount of ^3 H-thymidine incorporated into tumor cells treated with the phosphonate compound was calculated as a percentage of the amount of ^3 H-thymidine incorporated into untreated tumor cells.

In the next test the test system is B-16/F10 melanoma cells. Put plainly: B-16/F10 melanoma metastasis in C57BL/6 mice. The format is in vivo. Conditions: 10 mg/kg IV (day 0, 4 and 8). The procedure: Highly metastatic B-16/F10 melanoma cells were injected into the tail veins of female C57BL/6 mice (1×10^5 cells per mouse). Treatment of one group of mice with the phosphonate compound of the above formula (compound VIII), dissolved into 0.5mL ethanol, 0.5 mL cremaphor and 9.0 mL phosphate buffered saline, began three days after the tumor cells were injected. lntramuscular injections of 0.2 mL of the phosphonate emulsion (10 mg/kg/day) were given for 5 days per week for 2 weeks. A second group of mice were treated with Adriamycin (10 mg/kg given intravenously on days 0, 4 and 8) as a known anti-cancer drug control group, while a third group of mice received the vehicle emulsion alone. The mice were examined every day for general health, behaviour and body weight. Counts of metastatic melanomic tumor colonies found in the lungs, general observations of metastasis to distant organs and examination of organs (liver, kidneys, lungs and spleen) were taken at autopsy 4 weeks after treatment.

[3] abbreviates: 24 hours, read-out: Thymidine uptake (% of control).
Where [4] appears, read: 48 hours, WEHI-3B cells, read-out: Thymidine uptake (% of control).
[5] abbreviates: Table 3: 48 hours in title (text: 72 hours), WEHI-3B cells, read-out: Thymidine uptake (% of control).
Setting [6] is: Table 3: 48 hours in title (text: 72 hours).

Read-outs that look alike come from different tables or passages of the source.

Consider `CCCCCCCCCCCCCCCCSC[C@H](CCP(=O)([O-])OCC[N+](C)(C)C)OC` [Compound 1, 4hexadecylthio-3-O-methyl-3(S)-butane-phosphonocholine], for which, in the test with WEHI-3B tumor cells [1], the activity at 0.6 µM came out at 88%, the activity at 1.25 µM was determined as 95%, the activity at 2.5 µM came to 55% and the activity at 5 µM is 52%. Besides, in the test with WEHI-3B tumor cells [1], the activity at 10 µM amounted to 22% and the activity at 20 µM turned out to be 9%. In the test on WEHI-3B tumor cells [2], the viability – broadly, the share of living cells, or the viability signal relative to a control – at 6.25 µM was found to be 55 ± 0.5%; the viability at 12.5 µM was 31 ± 3.4%; the viability at 25 µM came out at 21 ± 0.2%; the viability at 50 µM is 2 ± 1.4%.
With `CCCCCCCCCCCCCCCCSC[C@@H](CCP(=O)([O-])OCC[N+](C)(C)C)OC` [Compound 2, 4hexadecylthio-3-O-methyl-3(R)-butane-phosphonocholine], in the test with WEHI-3B tumor cells [1], the activity at 0.6 µM was 54%, the activity at 1.25 µM came to 44%, the activity at 2.5 µM is 36% and the activity at 5 µM was determined as 21%. In the test on WEHI-3B tumor cells [1], the activity at 10 µM was found to be 5% and the activity at 20 µM is 0%. In the test with WEHI-3B tumor cells [2], the viability at 6.25 µM is 61 ± 0.4%, the viability at 12.5 µM is 24 ± 2.7%, the viability at 25 µM turned out to be 22 ± 4.6% and the viability at 50 µM is 12 ± 1.2%.
On to `CCCCCCCCCCCCCCCCCCOCC(CP(=O)([O-])OCC[N+](C)(C)C)OC` (stereo not shown) [compound V], for which, in the test with WEHI-3B tumor cells [2] (setting [3]), the activity at 0.62 µM was found to be 137 ± 6%, the activity at 1.25 µM was determined as 93 ± 7%, the activity at 2.5 µM turned out to be 91 ± 4% and the activity at 5 µM was 88 ± 11%. In the test with WEHI-3B tumor cells [2] (setting [3]), the activity at 10 µM worked out at 76 ± 6% and the activity at 20 µM amounted to 48 ± 4%. Further, in the test with WEHI-3B tumor cells [2] (setting [4]), the activity at 0.62 µM stood at 93 ± 6%, the activity at 1.25 µM amounted to 90 ± 5%, the activity at 2.5 µM was 86 ± 8% and the activity at 5 µM was found to be 61 ± 6%. In addition, in the test with WEHI-3B tumor cells [2] (setting [4]), the activity at 10 µM was determined as 23 ± 2% and the activity at 20 µM came to 18 ± 8%. Besides, in the test with WEHI-3B tumor cells [2] (setting [5]), the activity at 0.62 µM turned out to be 85 ± 3%, the activity at 1.25 µM stood at 86 ± 4%, the activity at 2.5 µM came to 82 ± 6% and the activity at 5 µM is 60 ± 4%. Also, in the test on WEHI-3B tumor cells [2] (setting [5]), the activity at 10 µM came out at 26 ± 3% and the activity at 20 µM came to 10 ± 3%. Further, the activity at 40 µM in the test on WEHI-3B tumor cells [2] (40 μM, 24 hours, read-out: Thymidine uptake (% of control)) was 43 ± 15%. In addition, in the test with HL-60 tumor cells (48 hours), the activity at 0.62 µM came out at 84 ± 5%, the activity at 1.25 µM was 76 ± 4%, the activity at 2.5 µM was 63 ± 4% and the activity at 5 µM was 24 ± 3%. Moreover, in the test on HL-60 tumor cells (48 hours), the activity at 10 µM stood at 3 ± 2% and the activity at 20 µM turned out to be 1%. Further, in the test on HL-60 tumor cells (setting [6]), the activity at 0.62 µM was determined as 93 ± 4%, the activity at 1.25 µM came out at 81 ± 4%, the activity at 2.5 µM was 66 ± 3% and the activity at 5 µM came to 16 ± 4%. For the same compound, in the test on HL-60 tumor cells (setting [6]), the activity at 10 µM stood at 5 ± 1% and the activity at 20 µM is 1 ± 0.9%.
For the compound `COc1cccc2c1C(=O)c1c(O)c3c(c(O)c1C2=O)C[C@@](O)(C(=O)CO)C[C@@H]3O[C@H]1C[C@H](N)[C@H](O)[C@H](C)O1` [Adriamycin, reference compound], the “melanomic tumor colonies in the lungs (in words)” value in the test on B-16/F10 melanoma cells was “none of the Adriamycin-treated mice developed melanomic tumor colonies in their lungs”. Moreover, the “Melanomic tumor colonies found in the lungs at autopsy” value with B-16/F10 melanoma cells (Mouse 1), in the test with B-16/F10 melanoma cells (Mouse 2), in the test with B-16/F10 melanoma cells (Mouse 3), in the test on B-16/F10 melanoma cells (Mouse 4), with B-16/F10 melanoma cells (Mouse 5) and with B-16/F10 melanoma cells (Mouse 6) was 0 each time.
